BigSolDB 2.1

NC(=O)N1c2ccccc2CC(=O)c2ccccc21
solubility (mole fraction)
Details | in DMAc | in DMF | in DMSO | in NMP | in transcutol | in water
288.15 K | 0.0256 | 0.0202 | 0.0312 | 0.0346 | 0.00418 | 5.42e-06
293.15 K | 0.0189 | 0.0212 | 0.0339 | 0.0358 | 0.00437 | 5.85e-06
298.15 K | 0.0205 | 0.0174 | 0.0367 | 0.0369 | 0.00456 | 6.3e-06
303.15 K | 0.0222 | 0.0183 | 0.0259 | 0.038 | 0.00475 | 6.74e-06
308.15 K | 0.0239 | 0.0193 | 0.0285 | 0.0335 | 0.00495 | 7.2e-06
